This is an account of results in patent publication US9937178B2, “Methods of identifying and using MDM2 inhibitors” (DUKE UNIVERSITY, priority 2011, dated 2018).

The structures appear in SMILES notation.

Common to all, as to type: cell-based
Assay [1] relates to PP5. In words: Immunoblot of PP5 protein levels. To be noted: 1 μM lapatinib. The method, then:
FIG. 7 is a set of photographs and graphs showing PP5 stability and post-cytochrome c protection in lapatinib-resistant cells. FIG. 7A is an immunoblot for caspase-9 (cleaved and non-cleaved) and cleaved caspase-3 (C9 and C3, respectively) showing rBT474 cells cultured in the absence or presence of 1 μM lapatinib for one week, as compared to BT474 cells which were maintained without lapatinib. Cytosolic lysates prepared from BT474 or rBT474 were incubated with 1 mM dATP and various amounts of cytochrome c (CC). FIG. 7B is a set of graphs showing Caspase 3 activity in the indicated cell lysates over time. Caspase-3 activity was assayed by measuring cleavage of DEVD-pNA following incubation of the cell lysates with 1 mM dATP and various concentrations of cytochrome c. FIG. 7C is an autoradiograph of ^32P and an immunoblot showing the percentage of the protein phosphorylated. In the presence of [γ-^32P]ATP, recombinant His-tagged HSP90β proteins (wild type and the indicated mutants) on nickel beads were incubated with the HSP90β-targeted kinase casein kinase 2. FIG. 7D is an autoradiograph and corresponding immunoblot showing BT474 or rBT474 cells after being cultured in the absence or presence of 1 μM lapatinib for 24 hours in the presence of z-VAD. Recombinant His-tagged HSP90β protein on nickel beads was incubated with the cell lysates in the presence of [γ-^32P]ATP. FIG. 7E is an immunoblot for phospho-Hsp90β (Ser226) and total HSP90β at various time points. […] FIG. 7F is a set of graphs showing FACS analysis for the phosphorylation status of Hsp90β (Ser255). BT474 or rBT474 cells cultured in the presence of 1 μM lapatinib for 24 hours were fixed with formaldehyde and incubated with phospho-Hsp90β (Ser255) antibody followed by an Alexa488-conjugated secondary antibody. FIG. 7G is an immunoblot for PP5 and actin at the indicated time points. BT474 and rBT474 (left) or AU565 and rAU565 cells (right) were treated with 1 μM lapatinib. FIG. 7H is an autoradiograph of immunoprecipitated FLAG-PP5 using an anti-FLAG agarose. […]
(In general: Immunoblotting shows a protein as a band on a membrane.)

Assay [2] concerns the target T1, CAS-MDM2 interaction (Homo sapiens, UniProt Q00987).
T1 construct: association of endogenous MDM2 was analyzed by immunoblotting; expressed in transfected cells; host or cells: BT474 and rBT474 cells transfected with FLAG-CAS; MDM2 endogenous
In words: CAS-MDM2 co-immunoprecipitation. To be noted: 1 μM lapatinib, 24 hours.
Method: BT474 and rBT474 (left) or AU565 and rAU565 cells (right) cultured in the absence of lapatinib for one week were treated with 1 μM lapatinib and the cells were harvested at various time points. FIG. 11B is an immmunoblot for CAS and Actin. rBT474 cells were maintained in the presence of 1 M lapatinib and the cells were harvested at various time points following removal of lapatinib. […] BT474 and rBT474 cells were transiently transfected with FLAG-tagged CAS and subsequently treated with 50 μg/ml cycloheximide (CHX) and 1 μM lapatinib and the cells were harvested at various time points. […] BT474 and rBT474 (left) or SKBR3 and rSKBR3 cells (right) were co-transfected with FLAG-CAS and HA-Ub. Cells were treated with 1 μM lapatinib for 24 hours in the presence of z-VAD. […] FIG. 11E is an immunoblot for FLAG-tagged proteins retrieved by immunoprecipitation and association with MDM2. […] FIG. 11F is an immunoblot for CAs after immunoprecipitation for FLAG. […] Cells were treated with 10 μM MG132 for 3 hours. […] FIG. 11I is an immunoblot for MDM2 or CAs after immunoprecipitation with FLAG. BT474 and rBT474 cells were transfected with FLAG-CAS. Cells were treated with 1 μM lapatinib for 24 hours in the presence of z-VAD. After treatment with 10 μM MG132 for 5 hours, FLAG-CAS was retrieved by immunoprecipitation and association of endogenous MDM2 was analyzed by immunoblotting. […]

The test system of assay [3] is Huwe1. In words: Immunoblot of Huwe1 protein levels and stability. The method, then:
FIG. 13 is a set of immunoblots showing MDM2-mediated ubiquitylation and degradation of Huwe1 in lapatinib-resistant cells. […] Cells treated with 1 μM lapatinib were harvested at various time points and immunoblotted. […] FIG. 13B is an immunoblot for HA and actin. BT474 and rBT474 cells were transiently transfected with HA-tagged Huwe1 and subsequently treated with 50 μg/ml cycloheximide (CHX) and 1 μM lapatinib. FIG. 13C is an immunoblot for Huwe1 and MDM2. Immunoprecipitation was carried out using H1299 cell lysates and anti-Huwe1 antibody (or control IgG). FIG. 13D is an immunoblot for HA or MDM2 after immunoprecipitation with HA. BT474 cells were transfected with HA-tagged Huwe1 encoding the full-length protein, residues 1-2474, or residues 2473-4374. […] H1299 cells were transfected with empty vector, HA-Huwe1^W1202A, or HA-Huwe1 wild type. FIG. 13F is an immunoblot for Huwe1 and Actin. BT474 cells were transfected with increasing amounts of MDM2 and harvested after 48 hours. FIG. 13G is an immunoblot for Huwe1, MDM2, and actin. […] FIG. 13H is an immunoblot for Huwe1. Ubiquitylation of Huwe1 was reconstituted in vitro by incubating recombinant Huwe1 protein (Huwe1^1-2474) with E1, UbcH5 (E2), ubiquitin (Ub), and recombinant MDM2 protein in reaction buffer at 37° C. for 3 hours. […] Twenty-four hours later, the cells were replated and further transfected with HA-tagged Huwe1 (wild type). Forty-eight hours after siRNA transfection, the cells were treated with 1 μM lapatinib. After 24 hours of lapatinib treatment, 50 μg/ml cycloheximide (CHX) was added to the culture medium and cells were harvested at various time points for immunoblotting.

T1 sequence (Q00987 whole entry): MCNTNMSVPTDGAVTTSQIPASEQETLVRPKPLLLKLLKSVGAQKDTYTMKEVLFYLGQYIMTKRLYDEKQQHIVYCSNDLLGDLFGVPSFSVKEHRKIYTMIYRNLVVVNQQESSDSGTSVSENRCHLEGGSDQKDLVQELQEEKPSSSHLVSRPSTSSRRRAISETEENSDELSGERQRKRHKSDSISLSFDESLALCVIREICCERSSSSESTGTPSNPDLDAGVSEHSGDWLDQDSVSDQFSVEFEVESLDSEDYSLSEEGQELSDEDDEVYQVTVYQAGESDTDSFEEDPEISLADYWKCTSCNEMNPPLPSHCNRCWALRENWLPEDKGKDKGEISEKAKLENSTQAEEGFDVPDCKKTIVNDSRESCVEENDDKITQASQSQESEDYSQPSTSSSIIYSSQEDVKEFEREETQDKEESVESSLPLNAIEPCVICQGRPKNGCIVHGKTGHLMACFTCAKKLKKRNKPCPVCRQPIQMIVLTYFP

Turning to `CS(=O)(=O)CCNCc1ccc(-c2ccc3ncnc(Nc4ccc(OCc5cccc(F)c5)c(Cl)c4)c3c2)o1` [lapatinib], the PP5 levels result in assay [1] (resistant cells) was “unaltered”; in assay [1] (sensitive cells), “gradual decrease”. Further, the values for the CAS-MDM2 interaction entry in assay [2] (BT474 cells) and in assay [2] (rBT474 cells) were “decreased” and “enhanced”, respectively. Besides, in assay [3] (lapatinib-treated rBT474 cells compared to BT474 cells, 50 μg/ml cycloheximide), the Huwe1 protein half-life entry is reported as “significantly shorter”. Moreover, the Huwe1 protein levels entry in assay [3] (parental cells, 1 μM lapatinib) is on record as “remained stable”. Besides, the Huwe1 levels result in assay [3] (resistant cells, 1 μM lapatinib) is recorded as “significantly decreased”.
